How the values were obtained:
[1] = test system: redroot pigweed (Amaranthus retroflexus L.); assay: Test Example 1: foliar treatment, growth inhibition rate, redroot pigweed; type: in vivo; conditions: 31 g/ha active ingredient, visually observed 17th to 23rd day after application
Procedure, shortened: (§1)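 Visual scoring of growth inhibition, 0% (untreated) to 100% (complete kill), on days 17–23 following post-emergence spray of formulated compound in water (500 L/ha, 0.1 vol % spreader); plants treated at set leaf stages, e.g. corn 2.0–3.5, wheat 1.7–3.4.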

[2] = test system: greenfoxtail (Setaria viridis L.); assay: Test Example 1: foliar treatment, growth inhibition rate, greenfoxtail; type: in vivo; conditions: 31 g/ha active ingredient, visually observed 17th to 23rd day after application
Procedure, shortened: (§2)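 Potted upland soil; compounds as wettable powders or emulsifiable concentrates diluted in water at 500 L/ha plus 0.1 vol % spreader, foliar-sprayed at defined leaf stages (rice 1.0–2.5, wheat 1.7–3.4, corn 2.0–3.5, greenfoxtail 1.0–3.0). Growth inhibition (0–100%) scored visually 17–23 days after application.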

velvetleaf = assay: Test Example 2: soil application on the day after sowing, growth inhibition rate, velvetleaf; type: in vivo, Abutilon theophrasti MEDIC.; conditions: 250 g/ha active ingredient, observed on 19th to 24th day
Procedure, shortened: (§3)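 Upland soil pots sown with crop and weed seeds; next day wettable powder or emulsifiable concentrate at prescribed active-ingredient amounts, diluted to 500 L/ha water, sprayed onto soil. Growth inhibition scored visually 19–24 days later, 0 (as untreated) to 100% (complete kill).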

[3] = test system: crabgrass (Digitaria sanguinalis L.); assay: Test Example 1: foliar treatment, growth inhibition rate, crabgrass; type: in vivo; conditions: 31 g/ha active ingredient, visually observed 17th to 23rd day after application
Procedure, shortened: as §1

[4] = test system: soybean (Glycine max Merr.); assay: Test Example 1: foliar treatment, growth inhibition rate, soybean; type: in vivo; conditions: 31 g/ha active ingredient, visually observed 17th to 23rd day after application
Procedure, shortened: as §1

barnyardgrass = assay: Test Example 2: soil application on the day after sowing, growth inhibition rate, barnyardgrass; type: in vivo, Echinochloa crus-galli L.; conditions: 250 g/ha active ingredient, observed on 19th to 24th day
Procedure, shortened: as §3

wheat (Triticum spp.) = assay: Test Example 1: foliar treatment, growth inhibition rate, wheat; type: in vivo; conditions: 31 g/ha active ingredient, visually observed 17th to 23rd day after application
Procedure, shortened: as §2

[5] = test system: prickly sida (Sida spinosa L.); assay: Test Example 1: foliar treatment, growth inhibition rate, prickly sida; type: in vivo; conditions: 31 g/ha active ingredient, visually observed 17th to 23rd day after application
Procedure, shortened: as §1

wheat = assay: Test Example 2: soil application on the day after sowing, growth inhibition rate, wheat; type: in vivo, Triticum spp.; conditions: 250 g/ha active ingredient, observed on 19th to 24th day
Procedure, shortened: as §3

rice (Oryza sativa L.) = assay: Test Example 1: foliar treatment, growth inhibition rate, rice; type: in vivo; conditions: 31 g/ha active ingredient, visually observed 17th to 23rd day after application
Procedure, shortened: as §2

corn = assay: Test Example 2: soil application on the day after sowing, growth inhibition rate, corn; type: in vivo, Zea mays L.; conditions: 250 g/ha active ingredient, observed on 19th to 24th day
Procedure, shortened: as §3

crabgrass = assay: Test Example 2: soil application on the day after sowing, growth inhibition rate, crabgrass; type: in vivo, Digitaria sanguinalis L.; conditions: 250 g/ha active ingredient, observed on 19th to 24th day
Procedure, shortened: as §3

rice = assay: Test Example 2: soil application on the day after sowing, growth inhibition rate, rice; type: in vivo, Oryza sativa L.; conditions: 250 g/ha active ingredient, observed on 19th to 24th day
Procedure, shortened: as §3

[6] = test system: barnyardgrass (Echinochloa crus-galli L.); assay: Test Example 1: foliar treatment, growth inhibition rate, barnyardgrass; type: in vivo; conditions: 31 g/ha active ingredient, visually observed 17th to 23rd day after application
Procedure, shortened: (§4)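 Post-emergence foliar spray, pot test; WP/EC formulation in water at 500 L/ha, + 0.1 vol % spreader; leaf stage at treatment: corn 2.0–3.5, green foxtail 1.0–3.0, rice 1.0–2.5, wheat 1.7–3.4; visual % inhibition at 17–23 DAT (0 = untreated, 100 = dead).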

greenfoxtail = assay: Test Example 2: soil application on the day after sowing, growth inhibition rate, greenfoxtail; type: in vivo, Setaria viridis L.; conditions: 250 g/ha active ingredient, observed on 19th to 24th day
Procedure, shortened: as §3

[7] = test system: velvetleaf (Abutilon theophrasti MEDIC.); assay: Test Example 1: foliar treatment, growth inhibition rate, velvetleaf; type: in vivo; conditions: 31 g/ha active ingredient, visually observed 17th to 23rd day after application
Procedure, shortened: as §4

prickly sida = assay: Test Example 2: soil application on the day after sowing, growth inhibition rate, prickly sida; type: in vivo, Sida spinosa L.; conditions: 250 g/ha active ingredient, observed on 19th to 24th day
Procedure, shortened: as §3

corn (Zea mays L.) = assay: Test Example 1: foliar treatment, growth inhibition rate, corn; type: in vivo; conditions: 31 g/ha active ingredient, visually observed 17th to 23rd day after application
Procedure, shortened: as §2

redroot pigweed = assay: Test Example 2: soil application on the day after sowing, growth inhibition rate, redroot pigweed; type: in vivo, Amaranthus retroflexus L.; conditions: 250 g/ha active ingredient, observed on 19th to 24th day
Procedure, shortened: as §3

soybean = assay: Test Example 2: soil application on the day after sowing, growth inhibition rate, soybean; type: in vivo, Glycine max Merr.; conditions: 250 g/ha active ingredient, observed on 19th to 24th day
Procedure, shortened: as §3

Structure (SMILES) | Growth inhibition rate (%) redroot pigweed [1] [%] | Growth inhibition rate (%) Greenfoxtail [2] [%] | Growth inhibition rate (%) Velvetleaf (velvetleaf) [%] | Growth inhibition rate (%) Crabgrass [3] [%] | Growth inhibition rate (%) Soybean [4] [%] | Growth inhibition rate (%) Barnyardgrass (barnyardgrass) [%] | Growth inhibition rate (%) Wheat (wheat (Triticum spp.)) [%] | Growth inhibition rate (%) Prickly sida [5] [%] | Growth inhibition rate (%) Wheat (wheat) [%] | Growth inhibition rate (%) Rice (rice (Oryza sativa L.)) [%] | Growth inhibition rate (%) Corn (corn) [%] | Growth inhibition rate (%) Crabgrass (crabgrass) [%] | Growth inhibition rate (%) Rice (rice) [%] | Growth inhibition rate (%) Barnyardgrass [6] [%] | Growth inhibition rate (%) Greenfoxtail (greenfoxtail) [%] | Growth inhibition rate (%) Velvetleaf [7] [%] | Growth inhibition rate (%) Prickly sida (prickly sida) [%] | Growth inhibition rate (%) Corn (corn (Zea mays L.)) [%] | Growth inhibition rate (%) redroot pigweed (redroot pigweed) [%] | Growth inhibition rate (%) Soybean (soybean) [%]
CCn1ncc(C(=O)c2ccc(S(C)(=O)=O)c(C(=O)OC)c2C)c1OC(=O)SC(C)(C)C [compound 91] | 98 | 98 | 70 | 98 | 98 | 90 | 0 | 75 | 0 | 90 | 0 | 95 | 80 | 95 | 60 | 95 | 95 | 20 | 100 | 30
CCn1ncc(C(=O)c2ccc(S(C)(=O)=O)c(C(=O)OC)c2C)c1OC(=O)SC(C)C [compound 87] | 100 | 100 | 50 | 100 | 95 | 80 | 10 | 75 | 0 | 90 | 0 | 90 | 80 | 95 | 70 | 95 | 70 | 10 | 95 | 0
CCSC(=O)Oc1c(C(=O)c2ccc(S(C)(=O)=O)c(C(=O)OC)c2Cl)cnn1CC [compound 95] | 100 | 100 | 80 | 90 | 95 | 100 | 20 | 80 | 0 | 90 | 0 | 95 | 98 | 100 | 100 | 90 | 95 | 10 | 100 | 0
COC(=O)c1c(S(C)(=O)=O)ccc(C(=O)c2cnn(C)c2OC(=O)SCc2ccccc2)c1C [compound 92] | 10 | 60 | 50 | 0 | 10 | 80 | 0 | 10 | 0 | 0 | 0 | 95 | 80 | 0 | 70 | 70 | 60 | 0 | 70 | 0
CCOC(=O)c1c(S(C)(=O)=O)ccc(C(=O)c2cnn(CC)c2OC(=O)SCC)c1Cl [compound 59] | 80 | 70 | 100 | 80 | 70 | 100 | 10 | 80 | 10 | 50 | 0 | 100 | 80 | 90 | 100 | 75 | 98 | 0 | 100 | 10
COC(=O)c1c(S(C)(=O)=O)ccc(C(=O)c2cnn(C)c2OC(=O)SC)c1C [Compound No. 3] | 90 | 100 | 70 | 95 | 95 | 60 | 50 | 90 | 0 | 100 | 0 | 100 | 95 | 95 | 60 | 95 | 95 | 60 | 100 | 40
CCSC(=O)Oc1c(C(=O)c2ccc(S(C)(=O)=O)c(OCCSC)c2C)cnn1C [compound 81] | 10 | 0 | 0 | 0 | 50 | 0 | 0 | 0 | 0 | 10 | 0 | 0 | 0 | 30 | 10 | 0 | 0 | 10 | 0 | 0

— patent US8030498B2, “Benzoylpyrazole compounds and herbicides containing them” (Ishihara Sangyo Kaisha, Ltd., priority 2005, dated 2011)
